Experimental data: US7078400B2, “20-HETE synthase inhibitor” (Taisho Pharmaceutical Co., Ltd., priority 1999, dated 2006)

Columns and labels:
[1] = system: 20-HETE synthase originated from rat kidney microsome; assay: Inhibitory effect of 20-HETE synthase originated from rat kidney microsome; type: biochemical; details: for Inhibition rate (1 μM): 20-HETE production without compound set to 100%
Protocol: Experimental Example [Inhibitory effect of 20-HETE synthase originated from rat kidney microsome]
Regarding the compounds listed in Table 1, their inhibitory activity to production of 20-HETE was examined.
The subject compound for this examination was added to a buffer comprising 50 mM of 3-morpholinopropane sulfonic acid (pH7.4), 5 mM of magnesium chloride and 1 mM of ethylenediaminetetraacetic acid (EDTA) disodium salt.
After that, the rat kidney microsome (microsome fraction prepared from the kidney of a spontaneous hypertension rat (male, 6 weeks of age)) as an enzyme, [5,6,8,9,11,12,14,15] tritium-arachidonic acid (supplied by Amasham) as a substrate, and NADPH (supplied by Sigma) as a coenzyme were added and reacted for 1.5 hours at 37° C.
After the reaction, formic acid was added to stop the reaction, and then acetonitrile (final concentration of 50%) was added and left for 1.5 hours at room temperature.
The activity of 20-HETE synthase was measured by using a high performance liquid chromatograph having a detector for radioactive substances (supplied by Gilson), and equipped with a C18 reversed phase column (Biocyl C18, supplied by Bio-rad).

[2] = 1 μM of the subject compound added, rat kidney microsome
[3] = concentration at which production of 20-HETE was inhibited to 50%, rat kidney microsome
[4] = concentration at which production of 20-HETE was inhibited to 50%
[5] = 1 μM of subject compound, rat kidney microsome
[6] = concentration at which 20-HETE production was inhibited to 50%, rat kidney microsome

Compound | Inhibition rate (1 μM) [1, 2] | IC50 [1, 3] [nM] | melting point [°C] | Inhibition rate (1 μM) ([1]; 1 μM of the subject compound) | IC50 [1, 4] [nM] | Inhibition rate (1 μM) [1, 5] | IC50 [1, 6] [nM]
CCOc1ccc(N/C=N/O)cc1 [Comp. 20] | 97.5 | 228 | 149 to 150 |  |  |  | 
CCCc1ccc(N/C=N/O)cc1 [Comp. 31] | 97.8 | 6.6 | 131 to 132 |  |  |  | 
CN1CCCC1CCOc1ccc(N/C=N/O)cc1 (stereo not shown) [Comp. 416] |  |  | 99.5 to 102.5 | 85.8 | 16.3 |  | 
Cc1ccc(N/C=N/O)c(Cl)c1 [Comp. 11] | 92.7 | 297 | 151 to 152.5 |  |  |  | 
O/N=C/Nc1ccc(OCc2ccc3ccccc3n2)cc1 [Comp. 342] |  |  | 174.5 to 175.5 |  |  | 98.5 | 5.3
COc1ccc(C(C)(C)C)cc1N/C=N/O [Comp. 6] | 99.9 |  | 119.5 to 120.5 |  |  |  | 
CCc1cccc(N/C=N/O)c1 [Comp. 21] | 81.1 |  | 115.5 to 116.5 |  |  |  | 
O/N=C/Nc1ccc(Br)cc1 [Comp. 36] | 98.3 | 136 | 163 to 164 |  |  |  | 
Cc1ccc(Cl)c(N/C=N/O)c1 [Comp. 14] | 91.7 | 163 | 151 to 153 |  |  |  | 
O/N=C/Nc1ccc(Cl)cc1 [Comp. 15] | 92.9 | 288 | 155.5 to 156 |  |  |  | 
CCCCCCCOc1ccc(N/C=N/O)cc1 [Comp. 321] |  |  | 121 to 122.5 |  |  | 99.9 | 3.7
Cc1cc(NC(=O)c2ccccc2)c(Cl)cc1N/C=N/O [Comp. 276] |  |  | 207 to 207.5 |  |  | 71.8 | 55.9
O/N=C/Nc1ccc(OCCCOc2ccccc2)cc1 [Comp. 365] |  |  | 143.5 to 145 |  |  | 105 | 1.4
COc1ccc(COc2ccc(N/C=N/O)cc2)c(OC)c1 [Comp. 395] |  |  | 178 to 178.5 |  |  | 111.6 | 2.1
O/N=C/Nc1ccc(OCC2COc3ccccc3O2)cc1 (stereo not shown) [Comp. 410] |  |  | 153 to 155 | 117.3 | 1 |  | 
CN(C)CCCCCCOc1ccc(N/C=N/O)cc1 [Comp. 402] |  |  | 95 to 96 | 118.8 | 18.7 |  | 
CN(C)CCCCOc1ccc(N/C=N/O)cc1 [Comp. 401] |  |  | 100 to 102 | 117.4 | 37.6 |  | 
O/N=C/Nc1c(Cl)cc(Cl)cc1Cl [Comp. 121] | 72.0 |  | 166.5 to 167 |  |  |  | 
O/N=C/Nc1ccc(OCc2ccc(F)cc2)cc1 [Comp. 392] |  |  | 165.5 to 166 |  |  | 109.6 | 2.4
C/C=C/COc1ccc(N/C=N/O)cc1 [Comp. 336] |  |  | 142.5 to 146 |  |  | 117.6 | 3.2
COCCOc1ccc(N/C=N/O)cc1 [Comp. 346] |  |  | 104 to 107 |  |  | 106.2 | 8.9
CCCCCc1ccc(N/C=N/O)cc1 [Comp. 7] | 110.5 | 12.1 | 122.5 to 124 |  |  |  | 
N#Cc1ccc(-c2ccc(N/C=N/O)cc2)cc1 [Comp. 229] |  |  | 194 to 195 |  |  | 99.3 | 16
CCc1cc(C#N)ccc1N/C=N/O [Comp. 56] | 50.6 |  | 144 to 145.5 |  |  |  | 
O/N=C/Nc1ccc(OCc2ccsc2)cc1 [Comp. 367] |  |  | 165 to 166 |  |  | 103 | 2.1
O/N=C/Nc1ccc(N2CCOCC2)cc1 [Comp. 300] |  |  | 182 to 182.5 |  |  | 96.3 | 5.7
O/N=C/Nc1ccc(OCC2CC2)cc1 [Comp. 356] |  |  | 141 to 142.5 |  |  | 102 | 2.6
O/N=C/Nc1cccc(Br)c1 [Comp. 82] | 70.9 |  | 133.5 to 134.5 |  |  |  | 
CCOCCCOc1ccc(N/C=N/O)cc1 [Comp. 371] |  |  | 93 to 94 |  |  | 110.4 | 0.9
Cc1ccc(N/C=N/O)cc1C [Comp. 13] | 95.9 | 118 | 116 to 118 |  |  |  | 
